Measurements: PMC7926936, “YM155 Inhibits NleB and SseK Arginine Glycosyltransferase Activity” (Pathogens, 2021)

Experiments:
NleB = NleB (Citrobacter rodentium, UniProt A0A482PDI9); assay: biochemical
SseK1 = SseK1 (Salmonella enterica, UniProt A0A0H3NK84); assay: biochemical
SseK1, sequence (A0A0H3NK84 whole entry, looked up): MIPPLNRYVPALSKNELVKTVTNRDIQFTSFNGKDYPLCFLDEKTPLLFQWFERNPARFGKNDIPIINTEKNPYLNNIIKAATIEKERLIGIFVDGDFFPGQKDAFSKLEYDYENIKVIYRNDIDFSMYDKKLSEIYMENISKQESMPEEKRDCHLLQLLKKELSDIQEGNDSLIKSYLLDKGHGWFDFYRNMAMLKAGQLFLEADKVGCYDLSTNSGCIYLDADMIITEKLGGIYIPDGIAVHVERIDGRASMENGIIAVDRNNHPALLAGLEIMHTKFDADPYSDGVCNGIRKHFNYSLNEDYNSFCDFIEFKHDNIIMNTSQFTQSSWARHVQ

NleB, sequence (A0A482PDI9 whole entry, looked up): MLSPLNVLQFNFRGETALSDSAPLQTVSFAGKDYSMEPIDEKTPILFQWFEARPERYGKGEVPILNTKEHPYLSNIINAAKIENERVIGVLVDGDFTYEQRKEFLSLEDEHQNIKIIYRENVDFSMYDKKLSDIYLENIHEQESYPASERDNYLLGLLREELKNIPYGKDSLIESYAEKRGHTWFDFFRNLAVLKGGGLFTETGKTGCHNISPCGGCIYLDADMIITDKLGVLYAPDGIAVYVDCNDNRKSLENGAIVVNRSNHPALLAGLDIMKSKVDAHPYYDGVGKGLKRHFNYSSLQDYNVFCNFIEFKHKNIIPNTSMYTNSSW

Compound `COCCn1c2c([n+](Cc3cnccn3)c1C)C(=O)c1ccccc1C2=O` [YM155] has an IC50 (NleB) of roughly 2 µM and an IC50 (SseK1) of roughly 2 µM.
